Experimental data published in patent US20160304861A1, “SPATIAL MULTIPLEXING FOR MULTISIGNAL CELLULAR IMAGING” (Massachusetts Institute of Technology, priority 2015, published 2016).

Test system: Gcamp6f sensor cluster in HEK293 cells
Assay: Gcamp6f sensor cluster response to ionomycin treatment in HEK293 cells
Assay type: cell-based
Conditions: 20 mM ionomycin in DMSO added at around 2 minutes, FIG. 1C
Description: HEK cells were transfected with the TransIT®-293 transfection reagent (Minis). Cells were plated in a 24-well plate, transfected with 50 ng plasmids per well after 18-24 hours plating, and imaged 24 hours after transfection. Mouse neurons were transfected with the calcium phosphate transfection kit (Invitrogen). Neurons were plated in a 24-well plate, transfected 96 hours after plating with 1500 ng plasmids per well and were imaged at least 48 hours after transfection. For co-transfection in neurons, two plasmids were mixed as 1:1 ratio, maintaining a total of 1500 ng plasmids per well. For HEK experiments, NucBlue Life cell stain and ReadyProbes reagent (Life Technologies) were added to stain the nucleus. Mfn1-null MEF cells (ATCC® CRL-2992™) were plated in a 24-well glass-bottom plate with 50-70% cell confluency. Plasmids were then transfected with a mixture of 200 ng plasmid and […] Trans-IT X2 (Mirus) per well. Transfected cells were incubated at 37° C. for 48-72 hours to establish the expression.
An inverted epi-fluorescence Nikon Ti Eclipse equipped with SPECTRA X light engine (LumenCor), Zyla5.5 camera (Andor), 100× 1.45 NA oil objective lens (Nikon), 20× 0.75 NA objective lens (Nikon), and standard CFP-YFP FRET filter sets (Semrock) were used to image the fluorescent patterns. FRET imaging typically lasts for 10 min. […]

C[C@H](CCC(=O)O)C[C@H](C)C[C@H](C)C(=O)/C=C(\O)[C@H](C)C[C@H](C)C/C=C/[C@@H](C)[C@@H](O)[C@@H](C)[C@@H](O)C[C@@H]1CC[C@@](C)([C@H]2CC[C@@](C)([C@@H](C)O)O2)O1 [ionomycin]
fluorescence by the Gcamp6f sensor cluster: incrase in fluorescence
